Measured values reported in PubChem BioAssay AID330 (DTP/NCI, 2004).
Several values for one entry are separate records, joined by “and”; a condition that tells them apart may be missing. Identical values can stand only once. Inconclusive results and toxic doses are left out.

System: P388 leukemia ip, CD2F1 mice, survival T/C
Assay: NCI In Vivo Anticancer Drug Screen. Data for tumor model P388 Leukemia (intraperitoneal) in CD2F1 (CDF1) mice
Settings: endpoint: median survival time, higher = longer survival
Method in brief: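 Mice carrying the transplanted tumor received test compound or vehicle. Survival was recorded in each group, and the value is the treated-group measurement divided by that of the vehicle-treated control group.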

[1] = dose: 60.0 mg/kg/injection, schedule: Q01DX005 (ip), vehicle: saline with Tween-80
[2] = dose: 50.0 mg/kg/injection, schedule: Q01DX009 (ip), vehicle: saline
[3] = dose: 100.0 mg/kg/injection, schedule: Q01DX009 (ip), vehicle: saline
[4] = dose: 200.0 mg/kg/injection, schedule: Q01DX009 (ip), vehicle: saline
[5] = dose: 50.0 mg/kg/injection, schedule: Q01DX005 (ip), vehicle: Klucel (hydroxypropylcellulose) (HPC)
[6] = dose: 100.0 mg/kg/injection, schedule: Q01DX005 (ip), vehicle: Klucel (hydroxypropylcellulose) (HPC)

SMILES: Oc1cc2c(cc1C(c1ccc3c(c1)OCO3)n1ccnc1)OCO2 (configuration not stated)
- T/C [1]: 108 % of control
- T/C (dose: 120.0 mg/kg/injection, schedule: Q01DX005 (ip), vehicle: saline with Tween-80): 98 % of control
- T/C (dose: 240.0 mg/kg/injection, schedule: Q01DX005 (ip), vehicle: saline with Tween-80): 94 % of control

SMILES: CCN(CC)CCOC(=O)C(C(=O)OCCN(CC)CC)C1CCCC1
- T/C (dose: 50.0 mg/kg/injection, schedule: Q01DX005 (ip), vehicle: saline): 94 % of control
- T/C (dose: 100.0 mg/kg/injection, schedule: Q01DX005 (ip), vehicle: saline): 92 % of control
- T/C (dose: 200.0 mg/kg/injection, schedule: Q01DX005 (ip), vehicle: saline): 100 % of control

SMILES: CNC(=O)N(C)C/C=C/CN(C)C(=O)NC
- T/C [2]: 105 % of control
- T/C [3]: 102 % of control
- T/C [4]: 102 % of control

SMILES: O=C1OCC/C1=C\NCCCCCCCCN/C=C1\CCOC1=O
- T/C (dose: 60.0 mg/kg/injection, schedule: Q01DX005 (ip), vehicle: Klucel (hydroxypropylcellulose) (HPC)): 97 % of control
- T/C (dose: 120.0 mg/kg/injection, schedule: Q01DX005 (ip), vehicle: Klucel (hydroxypropylcellulose) (HPC)): 102 % of control
- T/C (dose: 240.0 mg/kg/injection, schedule: Q01DX005 (ip), vehicle: Klucel (hydroxypropylcellulose) (HPC)): 105 % of control

SMILES: CCOC(=O)/C(C#N)=C1/SC=C(N)N1c1ccccc1
- T/C [5]: 98 % of control
- T/C [6]: 94 % of control
- T/C (dose: 200.0 mg/kg/injection, schedule: Q01DX005 (ip), vehicle: Klucel (hydroxypropylcellulose) (HPC)): 91 % of control

SMILES: Clc1cccc(/C=C/c2ccnnc2)c1
- T/C [2]: 101 % of control
- T/C [3]: 86 % of control and 97 % of control
- T/C [4]: 103 % of control and 96 % of control

SMILES: Cn1cnc2c(F)ncnc21
- T/C [5]: 100 % of control
- T/C [6]: 101 % of control

SMILES: COC(=O)C1=C(C(=O)OC)C2(C)OC1c1ccccc12 (configuration not stated)
- T/C (dose: 15.0 mg/kg/injection, schedule: Q01DX005 (ip), vehicle: saline with Tween-80): 106 % of control
- T/C (dose: 30.0 mg/kg/injection, schedule: Q01DX005 (ip), vehicle: saline with Tween-80): 106 % of control
- T/C [1]: 100 % of control and 102 % of control

SMILES: ClC1=C(Cl)C2(Cl)C3C4CC(C5OC45)C3N1C2(Cl)Cl (configuration not stated)
- T/C (dose: 100.0 mg/kg/injection, schedule: Q01DX001 (ip), vehicle: saline with Tween-80): 109 % of control
- T/C (dose: 200.0 mg/kg/injection, schedule: Q01DX001 (ip), vehicle: saline with Tween-80): 103 % of control

SMILES: NC(=S)N/N=C/c1c(-c2ccc(Cl)cc2)nc2n1CCS2
- T/C (dose: 100.0 mg/kg/injection, schedule: Q01DX001 (ip), vehicle: Klucel (hydroxypropylcellulose) (HPC)): 97 % of control
- T/C (dose: 200.0 mg/kg/injection, schedule: Q01DX001 (ip), vehicle: Klucel (hydroxypropylcellulose) (HPC)): 100 % of control
- T/C (dose: 400.0 mg/kg/injection, schedule: Q01DX001 (ip), vehicle: Klucel (hydroxypropylcellulose) (HPC)): 97 % of control

SMILES: CCN(CC)c1ccc2nc3ccc(=[N+](CC)CC)cc-3oc2c1
- T/C (dose: 7.5 mg/kg/injection, schedule: Q01DX005 (ip), vehicle: saline): 105 % of control
- T/C (dose: 15.0 mg/kg/injection, schedule: Q01DX005 (ip), vehicle: saline): 109 % of control

SMILES: NC1(c2ccccc2)C2CC3CC(C2)CC1C3 (configuration not stated)
- T/C (dose: 25.0 mg/kg/injection, schedule: Q04DX003 (ip), vehicle: Klucel (hydroxypropylcellulose) (HPC)): 101 % of control
- T/C (dose: 50.0 mg/kg/injection, schedule: Q04DX003 (ip), vehicle: Klucel (hydroxypropylcellulose) (HPC)): 102 % of control
- T/C (dose: 100.0 mg/kg/injection, schedule: Q04DX003 (ip), vehicle: Klucel (hydroxypropylcellulose) (HPC)): 109 % of control

SMILES: C/C(=C\C1C/C(=C/CCc2ccoc2)C(=O)O1)CCCc1ccoc1 (configuration not stated)
- T/C (dose: 25.0 mg/kg/injection, schedule: Q01DX009 (ip), vehicle: saline + alcohol): 100 % of control
- T/C (dose: 50.0 mg/kg/injection, schedule: Q01DX009 (ip), vehicle: saline + alcohol): 107 % of control

SMILES: CCCCN(CCCC)P(=O)(N1CC1)N1CC1
- T/C (dose: 6.25 mg/kg/injection, schedule: Q01DX009 (ip), vehicle: saline): 118 % of control
- T/C (dose: 16.5 mg/kg/injection, schedule: Q01DX009 (ip), vehicle: saline): 175 % of control
- T/C (dose: 100.0 mg/kg/injection, schedule: Q04DX003 (ip), vehicle: saline): 90 % of control

SMILES: C=CCC1(COS(N)(=O)=O)OC(n2cnc3c(N)ncnc32)C(O)C1O (configuration not stated)
- T/C (dose: 50.0 mg/kg/injection, schedule: Q01DX001 (ip), vehicle: saline): 101 % of control
- T/C (dose: 100.0 mg/kg/injection, schedule: Q01DX001 (ip), vehicle: saline): 101 % of control
- T/C (dose: 200.0 mg/kg/injection, schedule: Q01DX001 (ip), vehicle: saline): 111 % of control
- T/C (dose: 400.0 mg/kg/injection, schedule: Q01DX001 (ip), vehicle: saline): 99 % of control
